Data on three compounds can be found in patent publication US7332296B2, “Screening assay for enzymes involved in pathophysiology using SELDI-TOF mass spectrometry” (Wright State University, priority 2004, dated 2008).

Assay [1] has as its target T1, Plasma ACE1 (Mus musculus, UniProt P09470).
T1 construct: Plasma ACE1 converted Ang I (Ang 1-10; 1296.5 m/z) to Ang II; from tissue; host or cells: mouse plasma (crude, 0.5 µl)
T1 sequence (P09470 35-1237 limits assumed): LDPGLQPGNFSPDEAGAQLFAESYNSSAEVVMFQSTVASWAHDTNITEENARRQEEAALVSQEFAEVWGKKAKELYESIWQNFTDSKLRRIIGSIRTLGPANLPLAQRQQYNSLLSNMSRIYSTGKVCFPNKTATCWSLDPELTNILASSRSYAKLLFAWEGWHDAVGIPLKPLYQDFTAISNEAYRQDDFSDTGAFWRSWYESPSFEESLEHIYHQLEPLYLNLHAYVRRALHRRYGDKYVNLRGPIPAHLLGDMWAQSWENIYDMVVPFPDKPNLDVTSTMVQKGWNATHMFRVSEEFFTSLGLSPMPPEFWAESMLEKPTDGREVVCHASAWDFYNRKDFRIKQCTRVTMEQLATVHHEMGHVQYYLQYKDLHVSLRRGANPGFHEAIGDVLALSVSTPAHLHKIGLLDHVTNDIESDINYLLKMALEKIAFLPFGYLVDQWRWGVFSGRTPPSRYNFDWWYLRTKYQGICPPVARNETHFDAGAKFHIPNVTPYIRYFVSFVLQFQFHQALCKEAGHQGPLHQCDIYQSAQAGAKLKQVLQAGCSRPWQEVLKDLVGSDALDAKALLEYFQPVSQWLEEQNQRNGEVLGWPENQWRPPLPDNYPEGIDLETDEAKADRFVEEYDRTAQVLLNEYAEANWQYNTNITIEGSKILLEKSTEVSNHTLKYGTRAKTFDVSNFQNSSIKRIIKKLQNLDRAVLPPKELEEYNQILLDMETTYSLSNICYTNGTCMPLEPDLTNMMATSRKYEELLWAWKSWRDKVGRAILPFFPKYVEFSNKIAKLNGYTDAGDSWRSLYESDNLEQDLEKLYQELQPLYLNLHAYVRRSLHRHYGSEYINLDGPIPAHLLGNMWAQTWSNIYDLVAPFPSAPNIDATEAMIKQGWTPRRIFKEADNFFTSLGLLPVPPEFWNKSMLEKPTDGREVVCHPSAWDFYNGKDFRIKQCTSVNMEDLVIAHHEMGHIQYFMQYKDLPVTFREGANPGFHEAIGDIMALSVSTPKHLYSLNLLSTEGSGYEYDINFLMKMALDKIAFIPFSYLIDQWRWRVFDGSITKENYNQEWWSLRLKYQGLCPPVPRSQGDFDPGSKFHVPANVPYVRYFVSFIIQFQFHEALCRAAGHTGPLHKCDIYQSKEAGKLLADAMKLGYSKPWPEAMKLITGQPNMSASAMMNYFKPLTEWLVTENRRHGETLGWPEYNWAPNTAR
Kind of assay: SELDI-TOF-MS assay of ACE activity in plasma (Ang I substrate, Ang II product). In kind it is biochemical. The following applies: data not shown.

Assay [2] addresses T2, renin (Mus musculus, UniProt P06281).
T2 construct: Plasma incubated with AGT (1759, m/z) results in peptides with m/z that matched Ang 1 and Ang II; from tissue; host or cells: mouse plasma (crude, 0.5 µl)
T2 sequence (P06281 72-402): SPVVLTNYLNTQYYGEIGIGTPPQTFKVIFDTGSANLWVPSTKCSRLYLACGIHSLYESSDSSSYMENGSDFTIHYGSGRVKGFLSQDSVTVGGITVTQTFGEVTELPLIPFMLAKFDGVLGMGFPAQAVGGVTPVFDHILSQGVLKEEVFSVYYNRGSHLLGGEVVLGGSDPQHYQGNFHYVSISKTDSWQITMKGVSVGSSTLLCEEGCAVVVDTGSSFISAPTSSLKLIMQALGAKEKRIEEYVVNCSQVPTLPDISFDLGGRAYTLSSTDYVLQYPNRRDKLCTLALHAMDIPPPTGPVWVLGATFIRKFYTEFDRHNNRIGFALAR
Kind of assay: SELDI-TOF-MS assay of renin activity in plasma (AGT substrate; sequential renin and ACE1). In kind it is biochemical. Particulars: AGT + plasma + captopril (10 μM); FIG. 1F. As to the method:
For measurement of enzyme activities, substrates (Ang II or AGT) were incubated with plasma or tissue extracts and the peptide products were measured using SELDI-TOF MS. For ACE activity, plasma (0.5-2.5 μl) or tissue extracts (1 μg protein) were incubated in 50 μl MES buffer (50 mM, pH 6.7) containing 2 mM PMSF and varying concentrations of Ang I(0.1-10 μM) at 37° C. One μl of the reaction mixture was spotted onto ProteinChip arrays and analyzed as previously described in Cool, D. R. & Hardiman, A., “C-Terminal sequencing of peptide hormones using carboxypeptidase Y and SELDI-TOF mass spectrometry” Biotechniques 36, 32-34 (2004), incorporated herein by reference. […]. […]

As to `c1cnc2c(c1)ccc1cccnc12` [1, 10 phenanthroline], in assay [1] (0.44 mM 1, 10 phenanthroline), the “ACE activity (conversion of Ang I to Ang II)” value is on record as “blocked”. Regarding `O=C(O)CN(CCN(CC(=O)O)CC(=O)O)CC(=O)O` [EDTA], in assay [1] (10 mM EDTA), the “ACE activity (conversion of Ang I to Ang II)” value is on record as “blocked”.

`C[C@H](CS)C(=O)N1CCC[C@H]1C(=O)O` [captopril]: the “effect on renin activity” value in assay [2] was “no effect”.
